# From paper PMC4754833, “Rilpivirine analogs potently inhibit drug-resistant HIV-1 mutants” (Retrovirology, 2016)
# Where two headings read alike, the source gives them in different places.
# Experiments:
# [1] = test system: WT HIV-1; assay: single round infection luciferase assay, WT HIV-1; assay type: cell-based; settings: Human immunodeficiency virus 1
# Description: (§1) The human osteosarcoma cell line, HOS, was obtained from Dr. Richard Schwartz (Michigan State University, East Lansing, MI) and grown in Dulbecco’s modified Eagle’s medium (Invitrogen, Carlsbad, CA) supplemented with 5 % (v/v) fetal bovine serum, 5 % newborn calf serum, and penicillin (50 units/ml) plus streptomycin (50 µg/ml; Quality Biological, Gaithersburg, MD). Virion production and single-round infectivity assays were used to determine antiviral activity (IC50 values) of the compounds as previously described.
# (§2) pNLNgoMIVR-ΔEnv.LUC has been described previously. The RT open reading frame was removed from pNLNgoMIVR-ΔEnv.LUC (digestion with SpeI and SalI) and inserted between the SpeI and SalI sites of pBluescript II KS+. Using that construct as the wild-type template, we prepared the following HIV-1 RT mutants using the QuikChange II XL (Stratagene, La Jolla, CA) site-directed mutagenesis protocol kit: L100I, K103N, Y181C, Y188L, H221Y, K103N/Y181C, G190A, G190S, M230L, P236L, L100I/K103N, K103N/P225H, V106A/G190A/F227L, V106A, L234I, V106A/F227L, V106A/L234I, V106A/F227L/L234I, E40K, D67E, K101E, V111A, E138K, M184I, M184V, K101E/M184I, K101E/M184V, E138K/M184I, E138K/M184V, K101P, Y181I, and K101P/V179I. The following sense oligonucleotides were used with matching cognate antisense oligonucleotides (not shown) (Integrated DNA Technologies, Coralville, IA) in the mutagenesis: L100I, 5′-[…]-3′; L100I 2-103, 5′-[…]-3′; K103N, 5′-[…]-3′; Y181C, 5′-[…]-3′; Y188L, 5′-[…]-3′; H221Y, 5′-[…]-3′; G190A, 5′-[…]-3′; G190S, 5′-[…]-3′; P225H, 5′-[…]-3′; F227, 5′-[…]-3′; M230L, 5′-[…]-3′; P236L, 5′-[…]-3′; V106A, 5′-[…]-3′; L234I, 5′-[…]-3′; E40K, 5′-[…]-3′; D67E, 5′-[…]-3′; K101E, 5′-[…]-3′; V111A, 5′-[…]-3′; E138K, 5′-[…]-3′; M184I, 5′-[…]-3′; M184V, 5′-[…]-3′; K101P, 5′-[…]-3′; Y181I, 5′-[…]-3′; K101P/V179I, 5′-[…]-3′. The double mutants K103N/Y181C, K103N/P225H, and L100I/K103N were made using the previously generated K103N mutant and the appropriate oligonucleotides to add the second mutation, Y181C, P225, and L100I respectively. The double mutants V106A/F227L and V106A/L234I were prepared using the previously generated V106A mutant and the appropriate oligonucleotides to add the second mutation, F227L and L234I, respectively. The double mutants K101E/M184I and K101E/M184V were constructed using the previously generated K101E mutant and the appropriate oligonucleotides to add the second mutation, M184I and M184V, respectively. The double mutants E138K/M184I and E138K/M184V were constructed using the previously generated E138K mutant and the appropriate oligonucleotides for the second mutation, M184I and M184V, respectively. The triple mutant V106A/F227L/L234I was made using the previously generated V106A/F227L double mutant and the appropriate oligonucleotides for the third mutation, L234I. The triple mutant V106A/G190A/F227L was constructed in a series of steps using the previously generated V106A mutant and the appropriate oligonucleotides for the second mutation, G190A, to generate the double mutant V106A/G190A, and then the triple mutant was made using double mutant V106A/G190A and oligonucleotides for the third mutation, F227L. The DNA sequence of each construct was verified by DNA sequence determination. The sequences encoding the mutant RTs were then subcloned into pNLNgoMIVR-ΔEnv.LUC (between the KpnI and SalI sites) to produce the mutant HIV-1 constructs. These DNA sequences were also checked independently by DNA sequence determination.
# (§3) 10.1186/s12977-016-0244-2 The IC50 values (nM) of RPV and the RPV analogs were determined against the NNRTI resistant mutants were measured by using a single round infection assay, n = 4. The concentrations (nM) are measured by reductions in luciferase reporter activity followed by the standard deviations. […]
# [2] = test system: HIV-1 RT mutant G190A; assay: single round infection assay, G190A; assay type: cell-based; settings: Human immunodeficiency virus 1
# Description: as §1, §2, §3
# [3] = test system: HIV-1 RT mutant G190S; assay: single round infection assay, G190S; assay type: cell-based; settings: Human immunodeficiency virus 1
# Description: as §1, §2, §3
# [4] = test system: HIV-1 RT mutant M230L; assay: single round infection assay, M230L; assay type: cell-based; settings: M230L vs WT
# Description: as §1, §2, §3
# [5] = test system: HIV-1 RT mutant P236L; assay: single round infection assay, P236L; assay type: cell-based
# Description: as §1, §2, §3
# [6] = test system: HIV-1 RT mutant K103N/P225H; assay: single round infection assay, K103N/P225H; assay type: cell-based; settings: Human immunodeficiency virus 1
# Description: as §1, §2, §3
# [7] = test system: HIV-1 RT mutant V106A/G190A/F227L; assay: single round infection assay, V106A/G190A/F227L; assay type: cell-based
# Description: as §1, §2, §3
# [8] = test system: HIV-1 RT mutant V106A/F227L; assay: single round infection assay, V106A/F227L; assay type: cell-based; settings: V106A/F227L vs WT
# Description: as §1, §2, §3
# [9] = test system: HIV-1 RT mutant V106A/F227L/L234I; assay: single round infection assay, V106A/F227L/L234I; assay type: cell-based; settings: for IC50: ± SD, n=4
# Description: as §1, §2, §3
# [10] = test system: HIV-1 RT mutant D67E; assay: single round infection assay, D67E; assay type: cell-based; settings: D67E vs WT
# Description: as §1, §2, §3
# [11] = test system: HIV-1 RT mutant E138K; assay: single round infection assay, E138K; assay type: cell-based; settings: E138K vs WT
# Description: as §1, §2, §3
# [12] = test system: HIV-1 RT mutant E138K/M184I; assay: single round infection assay, E138K/M184I; assay type: cell-based; settings: E138K/M184I vs WT
# Description: as §1, §2, §3
# [13] = test system: HIV-1 RT mutant K101P; assay: single round infection assay, K101P; assay type: cell-based
# Description: as §1, §2, §3
# [14] = test system: HIV-1 RT mutant Y181I; assay: single round infection assay, Y181I; assay type: cell-based
# Description: as §1, §2, §3
# [15] = test system: HIV-1 RT mutant K101P/V179I; assay: single round infection assay, K101P/V179I; assay type: cell-based
# Description: as §1, §2, §3
# [16] = test system: WT HIV-1; settings: previous study; cited from earlier work
# [17] = test system: HIV-1 RT mutant L100I; set-up: method as in PMID 23217210; settings: previous study; cited from earlier work
# [18] = test system: HIV-1 RT mutant K103N; set-up: method as in PMID 23217210; settings: previous study; cited from earlier work
# [19] = test system: HIV-1 RT mutant Y181C; set-up: method as in PMID 23217210; settings: previous study; cited from earlier work
# [20] = test system: HIV-1 RT mutant H221Y; set-up: method as in PMID 23217210; settings: previous study; cited from earlier work
# [21] = test system: HIV-1 RT mutant K103N/Y181C; set-up: method as in PMID 23217210; settings: previous study; cited from earlier work
compound,measurement,setting,value
Cc1cc(/C=C/C#N)cc(C)c1Nc1nc(Nc2ccc(C#N)cc2)nc2[nH]cnc12 [compound 11],IC50,[1],0.56 ± 0.08 nM
same,IC50,[2],0.45 ± 0.01 nM
same,IC50,[3],0.2 ± 0.07 nM
same,fold-change of IC50 of the mutant relative to WT,[4],3
same,IC50,[5]; Human immunodeficiency virus 1,0.87 ± 0.2 nM
same,fold-change of IC50 of the mutant relative to WT,[5]; P236L vs WT,< 2
same,IC50,[6],0.22 ± 0.06 nM
same,IC50,[7]; Human immunodeficiency virus 1,0.98 ± 0.17 nM
same,fold-change of IC50 of the mutant relative to WT,[7]; V106A/G190A/F227L vs WT,< 2
same,fold-change of IC50 of the mutant relative to WT,[8],< 2
same,IC50,"[9]; Human immunodeficiency virus 1, V106A/F227L/L234I (selected by DOR)",< 5 nM
same,IC50,[9]; V106A/F227L/L234I (selected by DOR),3.4 ± 1.1 nM
same,fold-change of IC50 of the mutant relative to WT,[9]; V106A/F227L/L234I vs WT,6
same,fold-change of IC50 of the mutant relative to WT,[10],< 2
same,fold-change of IC50 of the mutant relative to WT,[11],< 2
same,fold-change of IC50 of the mutant relative to WT,[12],< 2
same,IC50,[13]; Human immunodeficiency virus 1,2.4 nM
same,fold-change of IC50 of the mutant relative to WT,[13]; K101P vs WT,4
same,IC50,[14]; Human immunodeficiency virus 1,2.4 nM
same,fold-change of IC50 of the mutant relative to WT,[14]; Y181I vs WT,4
same,IC50,[15]; Human immunodeficiency virus 1,2.5 nM
same,fold-change of IC50 of the mutant relative to WT,[15]; K101P/V179I vs WT,4
same,IC50,[16],< 7 nM
same,IC50,[17],< 7 nM
same,IC50,[18],< 7 nM
same,IC50,[19],< 7 nM
same,IC50,[20],< 7 nM
same,IC50,[21],< 5 nM
